Here are results for 18 molecules from US8420676B2, “Oxazolidinone derivatives” (Dong-A Pharmaceuticals Co. Ltd., priority 2003, dated 2013).

Data set [1] in a line: Assay for solubility in distilled water (turbidity by naked eye). The class given is physicochemical. The conditions noted are these: average of three runs; for solubility at 2 min: thermodynamic from solid. The protocol: The derivatives of the present invention were added to 200 μl of distilled water and then the solution was stirred for 2 minutes. The turbidity of the solution was watched through naked eye.
When the derivatives were not dissolved completely, 50 μl of distilled water was added to the solution and then the turbidity of the solution was assayed in the above manner to find a point of becoming transparent solution.
When 2 mg of the derivatives was first added to distilled water and completely dissolved so that the solution became transparent, 2 mg of the derivatives was added more to the solution and then state of the solution was watched. The derivatives of the present invention were added to the five times and then solubility of the solution was assayed for. The assay for solubility was carried out the three times repeatedly in the above method and the results were averaged.

In data set [2] the test system is methicillin resistant Staphylococcus aureus (MRSA). In words: Assay for in vitro antibacterial activity, agar dilution (MRSA). The conditions noted are these: read-out: Minimum Inhibitory Concentration (MIC50) MRSA.
Data set [3] concerns vancomycin resistant Enterococci (VRE). In words: Assay for in vitro antibacterial activity, agar dilution (VRE). The conditions noted are these: Enterococcus, read-out: Minimum Inhibitory Concentration (MIC50) VRE. In general terms: In agar dilution the substance is mixed into plates at graded concentrations.
The test system of another data set is ICR mice. In words: Test of acute toxicity by oral administration to mouse. The data set is classed as in vivo. The conditions noted are these: 1% hydroxypropylmethylcellulose, observed 2 weeks. The protocol:
To test acute toxicity of the compounds of the present invention, the following experiment was carried out.
A mixture of 1% hydroxypropylmethylcellulose and 200 mg of one selected from the group consisting of the compounds 10, 12, 16, 17, 20, 22, 24 and 27 was administrated to 5 ICR mice (5-Week old males, 20 g±2 g by weight). And then lethality for 2 weeks, weight, symptoms etc. was watched to determine Minimum Lethal Dose (MLD, mg/kg). […]

Values after ≈ are worked out from the molar mass of the structure shown. A value given as a limit tells only on which side of the number the result lay.

As a reminder, the solubility is the concentration that dissolves in the medium under given conditions. Low readings indicate little dissolved substance, high ones much dissolved substance. As to `C[C@H](N)C(=O)OC[C@H]1CN(c2ccc(-c3ccc(-c4nnn(C)n4)nc3)c(F)c2)C(=O)O1.Cl` [Compound 44, (R)-3-(4-(2-(2-methyltetrazol-5-yl)pyridin-5-yl)-3-fluorophenyl)-5-(L-alanyloxy)methyl oxazolidin-2-one hydrochloride], in data set [1], the solubility at 2 min was > 50000 µg/mL. Further, the MIC50 in data set [2] was found to be 0.5 µg/mL; in data set [3] it was 0.25 µg/mL.

Turning to `Cc1nnc(-c2ccc(-c3ccc(N4C[C@H](COC(=O)CN)OC4=O)cc3F)cn2)o1.Cl` [Compound 48, (R)-3-(4-(2-(2-methyl-[1,3,4]oxadiazol-5-yl)pyridin-5-yl)-3-fluorophenyl)-5-glycyloxymethyl oxazolidin-2-one hydrochloride], the solubility at 2 min in data set [1] is > 50000 µg/mL. Also, the MIC50 is 0.5 µg/mL in data set [2] and 1 µg/mL in data set [3].

The Solubility is the concentration that dissolves in the medium under given conditions. Low values mean a poorly soluble substance, high ones a readily soluble substance. In data set [1], `CC(C)[C@H](N)C(=O)OC[C@H]1CN(c2ccc(-c3ccc(-c4nnn(C)n4)nc3)c(F)c2)C(=O)O1` [Compound 20, (R)-3-(4-(2-(2-methyltetrazol-5-yl)pyridin-5-yl)-3-fluorophenyl)-5-(L-valyloxy)methyl oxazolidin-2-one trifluoroacetic acid] yielded a Solubility of 4.7 mg/mL (≈ 10000 µM). In addition, the “Minimum Lethal Dose (MLD)” value with ICR mice is on record as >1000 mg/kg.

Consider `Cc1nnc(-c2ccc(-c3ccc(N4C[C@H](COC(=O)CN)OC4=O)cc3F)cn2)o1` [Compound 27, (R)-3-(4-(2-(2-methyl-[1,3,4]oxadiazole-5-yl)pyridin-5-yl)-3-fluorophenyl)-5-glycyloxymethyl oxazolidin-2-one trifluoroacetic acid], for which the solubility at 2 min in data set [1] is > 50000 µg/mL. Moreover, the “Minimum Lethal Dose (MLD)” value with ICR mice is reported as >1000 mg/kg.

As to `Cc1nnc(-c2ccc(-c3ccc(N4C[C@H](COC(=O)CCN)OC4=O)cc3F)cn2)o1.Cl` [Compound 58, (R)-3-(4-(2-(2-methyl-[1,3,4]oxadiazol-5-yl)pyridin-5-yl)-3-fluorophenyl)-5-(β-alanyloxy)methyl oxazolidin-2-one hydrochloride], the solubility at 2 min in data set [1] is 5500 µg/mL. The MIC50 amounted to 0.5 µg/mL in data set [2] and 1 µg/mL in data set [3].

Regarding `Cn1nnnc1-c1ccc(-c2ccc(N3C[C@H](COP(=O)([O-])[O-])OC3=O)cc2F)cn1.[Na+].[Na+]` [Compound 70, (R)-[3-(4-(2-(1-methyltetrazol-5-yl)pyridin-5-yl)-3-fluorophenyl)-2-oxo-5-oxazolidinyl]methyl disodiumphosphate], the solubility at 2 min in data set [1] was > 50000 µg/mL. The MIC50 in data set [2] is 0.5 µg/mL; in data set [3], 0.25 µg/mL.

Molecule `Cl.Cn1nnc(-c2ccc(-c3ccc(N4C[C@H](COC(=O)CN)OC4=O)cc3F)cn2)n1` [Compound 45, (R)-3-(4-(2-(2-methyltetrazol-5-yl)pyridin-5-yl)-3-fluorophenyl)-5-glycyloxymethyl oxazolidin-2-one hydrochloride] registered a Solubility in data set [1] of 12 mg/mL. In addition, the MIC50 in data set [2] was 0.5 µg/mL; in data set [3], 0.25 µg/mL.

Molecule `Cc1nnc(-c2ccc(-c3ccc(N4C[C@H](CO)OC4=O)cc3F)cn2)o1` [Compound 16, (R)-3-(4-(2-(2-methyl-[1,3,4]oxadiazol-5-yl)pyridin-5-yl)-3-fluorophenyl)-5-hydroxymethyl oxazolidin-2-one] yielded a solubility at 2 min in data set [1] of 20 µg/mL (≈ 54 µM). For the same molecule, the MIC50 in data set [2] is 0.5 µg/mL (≈ 1.35 µM); in data set [3] it was 1 µg/mL (≈ 2.7 µM). Besides, the “Minimum Lethal Dose (MLD)” value in the data set with ICR mice was >1000 mg/kg.

With `Cc1nnc(-c2ccc(-c3ccc(N4C[C@H](COC(=O)[C@H](C)N)OC4=O)cc3F)cn2)o1.Cl` [Compound 52, (R)-3-(4-(2-(2-methyl-[1,3,4]oxadiazol-5-yl)pyridin-5-yl)-3-fluorophenyl)-5-(L-alanyloxy)methyl oxazolidin-2-one hydrochloride], the solubility at 2 min in data set [1] was > 50000 µg/mL. The MIC50 came to 0.5 µg/mL in data set [2] and 1 µg/mL in data set [3].

For `O=C1O[C@@H](CO)CN1c1ccc(-c2ccc(-n3cncn3)nc2)c(F)c1` [Compound 17, (R)-3-(4-(2-[1,2,4]triazol-1-ylpyridin-5-yl)-3-fluorophenyl)-5-hydroxymethyl oxazolidin-2-one], the MIC50 in data set [2] and in data set [3] was 1 µg/mL (≈ 2.81 µM) each time. For the same molecule, the “Minimum Lethal Dose (MLD)” value in the data set with ICR mice is reported as >1000 mg/kg.

Regarding `O=C1O[C@@H](CO)CN1c1ccc(-c2ccc(-n3ccnn3)nc2)c(F)c1` [Compound 24, (R)-3-(4-(2-([1,2,3]triazol-1-yl)pyridin-5-yl)-3-fluorophenyl)-5-hydroxymethyl oxazolidin-2-one], the MIC50 in data set [2] and in data set [3] was 0.5 µg/mL (≈ 1.41 µM) throughout. Further, the “Minimum Lethal Dose (MLD)” value in the data set on ICR mice is >1000 mg/kg.

As for `Cn1nnc(-c2ccc(-c3ccc(N4C[C@H](COP(=O)([O][Na+])[O][Na+])OC4=O)cc3F)cn2)n1` [Compound 59, (R)-[3-(4-(2-(2-methyltetrazol-5-yl)pyridin-5-yl)-3-fluorophenyl)-2-oxo-5-oxazolidinyl]methyl disodiumphosphate], the solubility at 2 min in data set [1] is > 50000 µg/mL. Further, the MIC50 in data set [2] is 0.5 µg/mL; in data set [3] it was 0.25 µg/mL.

Regarding `Cc1nnc(-c2ccc(-c3ccc(N4C[C@H](COP(=O)([O][Na+])[O][Na+])OC4=O)cc3F)cn2)o1` [Compound 60, (R)-[3-(4-(2-(2-methyl-[1,3,4]oxadiazol-5-yl)pyridin-5-yl)-3-fluorophenyl)-2-oxo-5-oxazolidinyl]methyl disodiumphosphate], the solubility at 2 min in data set [1] is > 50000 µg/mL. The MIC50 in data set [2] turned out to be 0.5 µg/mL; in data set [3] it was 1 µg/mL.

In turn, `Cl.Cn1nnc(-c2ccc(-c3ccc(N4C[C@H](COC(=O)[C@@H]5CCCN5)OC4=O)cc3F)cn2)n1` [Compound 47, (R)-3-(4-(2-(2-methyltetrazol-5-yl)pyridin-5-yl)-3-fluorophenyl)-5-(L-prolinyloxy)methyl oxazolidin-2-one hydrochloride] came in with a solubility at 2 min in data set [1] of 2000 µg/mL. Also, the MIC50 in data set [2] is 0.5 µg/mL; in data set [3], 0.25 µg/mL.

In data set [1], `CC(C)[C@H](N)C(=O)OC[C@H]1CN(c2ccc(-c3ccc(-c4nnn(C)n4)nc3)c(F)c2)C(=O)O1.Cl` [Compound 43, (R)-3-(4-(2-(2-methyltetrazol-5-yl)pyridin-5-yl)-3-fluorophenyl)-5-(L-valyloxy)methyl oxazolidin-2-one hydrochloride] showed a Solubility of 4.2 mg/mL. For the same molecule, the MIC50 in data set [2] amounted to 0.5 µg/mL; in data set [3], 0.25 µg/mL.

As to `Cn1nnc(-c2ccc(-c3ccc(N4C[C@H](COC(=O)CN)OC4=O)cc3F)cn2)n1` [Compound 12, (R)-3-(4-(2-(2-methyltetrazol-5-yl)pyridin-5-yl)-3-fluorophenyl)-5-glycyloxymethyl oxazolidin-2-one trifluoroacetic acid], the Solubility in data set [1] was 28 mg/mL (≈ 65500 µM). The “Minimum Lethal Dose (MLD)” value with ICR mice is >1000 mg/kg.

As to `NCC(=O)OC[C@H]1CN(c2ccc(-c3ccc(-n4ccnn4)nc3)c(F)c2)C(=O)O1` [Compound 22, (R)-3-(4-(2-([1,2,3]triazol-1-yl)pyridin-5-yl)-3-fluorophenyl)-5-glycyloxymethyl oxazolidin-2-one trifluoroacetic acid], the MIC50 in data set [2] and in data set [3] was 1 µg/mL (≈ 2.42 µM) throughout. Also, the “Minimum Lethal Dose (MLD)” value in the data set on ICR mice is >1000 mg/kg.

In turn, `Cn1nnc(-c2ccc(-c3ccc(N4C[C@H](CO)OC4=O)cc3F)cn2)n1` [Compound 10, (R)-3-(4-(2-(2-methyltetrazol-5-yl)pyridin-5-yl)-3-fluorophenyl)-5-hydroxymethyl oxazolidin-2-one] showed a solubility at 2 min in data set [1] of 10 µg/mL (≈ 27 µM). The results for the MIC50 in data set [2] and in data set [3] were 0.5 µg/mL (≈ 1.35 µM) and 0.25 µg/mL (≈ 0.675 µM), respectively. Also, in the data set on ICR mice, the “Minimum Lethal Dose (MLD)” value was >1000 mg/kg.
